# Reference: ChEMBL document CHEMBL5365528, “Expanding the Role of Boron in New Drug Chemotypes: Properties, Chemistry, Pharmaceutical Potential of Hemiboronic Naphthoids” (J Med Chem, 2023)
# The source made the active and inactive calls. The rule behind the calls is not given here.
# Columns and labels:
# Staphylococcus aureus [1] = experiment: Antibacterial activity against Staphylococcus aureus ATCC 43300 assessed as inhibition of bacterial growth incubated for 18 hrs; type: functional
# Staphylococcus aureus [2] = experiment: Antibacterial activity against Staphylococcus aureus ATCC 43300 assessed as inhibition of bacterial growth at 100 uM incubated for 18 hrs; type: functional, organism-based
# Candida albicans [3] = experiment: Antifungal activity against Candida albicans UAMH 3489 assessed as inhibition of fungal growth incubated for 24 hrs; type: functional
# [4] = target: 3',5'-cyclic-AMP phosphodiesterase 4B (Homo sapiens) (UniProt Q07343); experiment: Inhibition of N-terminal GST-tagged full length human PDE4B1 (1 to 736 residues) expressed in baculovirus-infected Sf9 cells using FAM-cAMP as substrate at 2 uM measured after 60 mins by fluorescence based analysis
# [5] = Protein binding in human plasma at 1 uM measured after 6 hrs by LC-MS/MS analysis; type: ADME, cell-free; details: read-out: PPB (converted)
# [6] = Hepatic blood flow in human; type: ADME
# [7] = Efflux ratio of permeability across basolateral to apical membrane over apical to basolateral membrane in human Caco-2 cells at 10 uM measured for 90 mins by LC-MS/MS analysis; type: ADME, cell-based
# [8] = Dissociation constant, pKa of the compound in 1:1 CH3CN/aqueous phosphate buffer; type: physicochemical
# [9] = Permeability of the compound across apical to basolateral membrane in human Caco-2 cells at 10 uM measured for 90 mins by LC-MS/MS analysis; type: ADME, cell-based
# [10] = Stability of the compound in d6-DMSO with drop of D2O and measured for >1 month at room temperature by NMR spectroscopy; type: physicochemical; details: time > 1 months, read-out: Stability
# Candida albicans [11] = experiment: Antifungal activity against Candida albicans UAMH 3489 assessed as inhibition of fungal growth at 100 uM incubated for 24 hrs; type: functional, organism-based
# [12] = Half life in human hepatocytes at 1 uM by LC-MS/MS analysis; type: ADME, cell-based, Hepatocyte
# [13] = Permeability of the compound across basolateral to apical membrane in human Caco-2 cells at 10 uM measured for 90 mins by LC-MS/MS analysis; type: ADME, cell-based
# [14] = Lipophilicity, log D of the compound in Octanol/PBS buffer at pH 7.4 measured after 1 hr by LC-MS/MS analysis; type: physicochemical
# [15] = Kinetic solubility of the compound in PBS buffer at pH 7.4 measured after 2 hrs by LC-MS/MS analysis; type: physicochemical; details: read-out: Kinetic_solubility
# [16] = Dissociation constant, pKa of the compound in aqueous phosphate buffer with 3 to 4% DMSO; type: physicochemical
# [17] = Lipophilicity, log P of the compound in octanol/water by RP-HPLC analysis; type: physicochemical
# [18] = Clearance in human hepatocytes at 1 uM measured per million cells by LC-MS/MS analysis; type: ADME, cell-based, Hepatocyte; details: read-out: CLH
# [19] = target: T1, Poly [ADP-ribose] polymerase 2 (Homo sapiens, UniProt Q9UGN5); experiment: Inhibition of N-terminal GST-tagged human PARP2 (2 to 583 residues) expressed in baculovirus-infected Sf9 cells using histone as substrate incubated for 60 mins in presence of activated DNA, NAD+, NAD+-biotin by luminescence based analysis
# [20] = target: T2, Poly [ADP-ribose] polymerase 1 (Homo sapiens, UniProt P09874); experiment: Inhibition of N-terminal GST-tagged full length human PARP1 (2 to 1014 residues) expressed in baculovirus-infected Sf9 cells using histone as substrate at 1000 nM incubated for 60 mins in presence of activated DNA, NAD+, NAD+-biotin by luminescence based analysis
# [21] = target: T2, Poly [ADP-ribose] polymerase 1; experiment: Inhibition of N-terminal GST-tagged full length human PARP1 (2 to 1014 residues) expressed in baculovirus-infected Sf9 cells using histone as substrate incubated for 60 mins in presence of activated DNA, NAD+, NAD+-biotin by luminescence based analysis
# [22] = target: T1, Poly [ADP-ribose] polymerase 2; experiment: Inhibition of N-terminal GST-tagged human PARP2 (2 to 583 residues) expressed in baculovirus-infected Sf9 cells using histone as substrate at 1000 nM incubated for 60 mins in presence of activated DNA, NAD+, NAD+-biotin by luminescence based analysis
# [23] = target: 3',5'-cyclic-AMP phosphodiesterase 4B (Homo sapiens) (UniProt Q07343); experiment: Inhibition of N-terminal GST-tagged full length human PDE4B1 (1 to 736 residues) expressed in baculovirus-infected Sf9 cells using FAM-cAMP as substrate at 0.1 uM measured after 60 mins by fluorescence based analysis
# Chain of 3',5'-cyclic-AMP phosphodiesterase 4B (Homo sapiens) (Q07343 whole entry, the tested form may be a part): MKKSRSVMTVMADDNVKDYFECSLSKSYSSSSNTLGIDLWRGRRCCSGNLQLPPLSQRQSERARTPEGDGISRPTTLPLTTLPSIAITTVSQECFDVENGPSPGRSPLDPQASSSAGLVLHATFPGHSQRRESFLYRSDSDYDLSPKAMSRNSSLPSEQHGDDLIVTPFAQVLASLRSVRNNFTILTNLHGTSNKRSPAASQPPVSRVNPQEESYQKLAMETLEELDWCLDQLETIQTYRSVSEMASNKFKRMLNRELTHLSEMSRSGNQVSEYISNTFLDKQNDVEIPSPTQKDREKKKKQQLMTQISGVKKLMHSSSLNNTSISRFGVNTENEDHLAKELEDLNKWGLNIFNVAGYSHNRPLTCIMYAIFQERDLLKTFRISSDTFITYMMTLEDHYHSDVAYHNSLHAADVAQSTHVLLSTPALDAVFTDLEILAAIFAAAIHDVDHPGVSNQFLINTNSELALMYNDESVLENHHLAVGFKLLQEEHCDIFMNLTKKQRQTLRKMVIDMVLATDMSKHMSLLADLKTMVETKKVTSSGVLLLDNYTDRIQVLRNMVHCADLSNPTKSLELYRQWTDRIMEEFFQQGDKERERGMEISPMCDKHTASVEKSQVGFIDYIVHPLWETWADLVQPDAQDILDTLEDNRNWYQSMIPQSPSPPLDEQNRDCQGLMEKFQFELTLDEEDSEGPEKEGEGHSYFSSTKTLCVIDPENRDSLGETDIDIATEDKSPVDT
# T1 sequence (Q9UGN5 whole entry, the tested form may be a part): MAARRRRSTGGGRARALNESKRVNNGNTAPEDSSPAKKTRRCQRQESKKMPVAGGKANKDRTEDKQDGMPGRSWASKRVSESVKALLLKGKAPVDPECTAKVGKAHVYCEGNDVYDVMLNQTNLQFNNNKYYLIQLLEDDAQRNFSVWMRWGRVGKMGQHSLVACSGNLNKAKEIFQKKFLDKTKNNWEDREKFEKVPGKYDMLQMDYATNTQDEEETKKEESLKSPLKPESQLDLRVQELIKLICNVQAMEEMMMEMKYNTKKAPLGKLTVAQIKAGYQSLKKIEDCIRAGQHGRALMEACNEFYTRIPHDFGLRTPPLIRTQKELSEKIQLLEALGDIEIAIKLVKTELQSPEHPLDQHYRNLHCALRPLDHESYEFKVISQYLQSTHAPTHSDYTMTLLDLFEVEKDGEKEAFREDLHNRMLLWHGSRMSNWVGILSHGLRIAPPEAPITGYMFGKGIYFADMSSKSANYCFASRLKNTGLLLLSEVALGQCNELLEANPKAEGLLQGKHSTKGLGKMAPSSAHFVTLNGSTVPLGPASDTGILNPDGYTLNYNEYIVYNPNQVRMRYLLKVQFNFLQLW
# T2 sequence (P09874 whole entry, the tested form may be a part): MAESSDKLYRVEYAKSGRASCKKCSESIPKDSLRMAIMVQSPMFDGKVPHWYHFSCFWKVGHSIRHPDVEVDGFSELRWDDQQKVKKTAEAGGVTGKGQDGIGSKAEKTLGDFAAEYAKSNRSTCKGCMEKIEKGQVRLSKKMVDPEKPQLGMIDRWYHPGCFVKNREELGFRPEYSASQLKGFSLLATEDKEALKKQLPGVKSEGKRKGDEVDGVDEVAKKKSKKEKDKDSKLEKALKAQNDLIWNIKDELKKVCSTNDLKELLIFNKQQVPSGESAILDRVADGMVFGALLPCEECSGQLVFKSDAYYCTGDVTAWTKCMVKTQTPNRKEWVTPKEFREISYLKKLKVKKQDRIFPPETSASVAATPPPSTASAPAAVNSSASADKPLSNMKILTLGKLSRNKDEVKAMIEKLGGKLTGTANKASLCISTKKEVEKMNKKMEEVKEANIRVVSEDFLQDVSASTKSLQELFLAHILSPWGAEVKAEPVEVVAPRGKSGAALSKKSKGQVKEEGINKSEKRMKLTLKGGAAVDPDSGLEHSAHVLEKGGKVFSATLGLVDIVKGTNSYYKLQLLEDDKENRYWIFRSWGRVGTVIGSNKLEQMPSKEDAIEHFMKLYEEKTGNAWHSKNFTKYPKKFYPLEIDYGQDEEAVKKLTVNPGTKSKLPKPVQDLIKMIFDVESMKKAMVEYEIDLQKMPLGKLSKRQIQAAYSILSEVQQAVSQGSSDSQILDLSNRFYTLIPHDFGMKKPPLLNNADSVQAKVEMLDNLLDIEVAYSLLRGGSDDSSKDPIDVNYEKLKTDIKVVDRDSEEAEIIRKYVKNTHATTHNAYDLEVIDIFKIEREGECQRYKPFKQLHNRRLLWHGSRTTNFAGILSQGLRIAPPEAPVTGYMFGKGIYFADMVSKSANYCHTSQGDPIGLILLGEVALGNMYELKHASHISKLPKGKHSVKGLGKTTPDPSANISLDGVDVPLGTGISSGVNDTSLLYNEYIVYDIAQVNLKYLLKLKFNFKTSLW
compound,measurement,setting,value
COc1ccc(C2=NOB(O)c3ccccc32)cc1Br,MIC,Staphylococcus aureus [1],16 µM
OB1ON=Cc2cc(F)ccc21,Activity,Staphylococcus aureus [2],inactive
same,MIC,Candida albicans [3],8 µM
N#Cc1ccc(Oc2ccc3c(c2)C=NNB3O)cc1,inhibition,[4],5%
OB1ON=Cc2cc(-c3ccsc3)ccc21,MIC,Candida albicans [3],2 µM
OC(Cn1cncn1)(Cn1cncn1)c1ccc(F)cc1F [FLUCONAZOLE],MIC,Candida albicans [3],4 µM
OB1NN=Cc2ccccc21,"fraction unbound at 6 h, 1 µM",[5],0.082
same,percent of hepatic blood flow,[6],< 36.1%
same,"efflux ratio at 1.5 h, 10 µM",[7],1
same,pKa,[8],> 14
same,"Papp A→B at 1.5 h, 10 µM",[9],30.1 ×10⁻⁶ cm/s
same,remaining at 730 h,[10],> 99%
same,Activity,Candida albicans [11],inactive
same,half-life at 1 µM,[12],> 6 h
same,"Papp B→A at 1.5 h, 10 µM",[13],30.6 ×10⁻⁶ cm/s
same,logD at 1 h,[14],2.03
same,solubility kinetic at 2 h,[15],≥ 439 µM
same,pKa,[16],> 14
same,logP,[17],1.94
same,hepatocyte CLint at 1 µM,[18],< 3.9 µL/min/1e6 cells
CCCC(=O)Nc1ccc(OCC(O)CNC(C)C)c(C(C)=O)c1 (stereo unspecified) [ACEBUTOLOL],"fraction unbound at 6 h, 1 µM",[5],0.707
COc1ccc2c(c1)C(c1ccccc1)=NOB2O,MIC,Staphylococcus aureus [1],8 µM
OB1ON=Cc2cc(-c3ccoc3)ccc21,MIC,Candida albicans [3],2 µM
OB1NN=Cc2cc(-c3ccc(C(F)(F)F)cc3)ccc21,Activity,Candida albicans [11],inactive
N#Cc1ccc(Oc2ccc3c(c2)C(c2ccccc2)=NOB3O)cc1,inhibition,[4],15%
OB1ON=Cc2cc(-c3ccc(C(F)(F)F)cc3)ccc21,MIC,Candida albicans [3],0.125 µM
OB1NN=C(c2ccccc2)c2ccccc21,"fraction unbound at 6 h, 1 µM",[5],0.0141
same,percent of hepatic blood flow,[6],65.2%
same,"efflux ratio at 1.5 h, 10 µM",[7],0.82
same,pKa,[8],> 13
same,"Papp A→B at 1.5 h, 10 µM",[9],26.9 ×10⁻⁶ cm/s
same,remaining at 730 h,[10],> 99%
same,half-life at 1 µM,[12],1.81 h
same,"Papp B→A at 1.5 h, 10 µM",[13],22.1 ×10⁻⁶ cm/s
same,logD at 1 h,[14],3.44
same,solubility kinetic at 2 h,[15],189 µM
same,pKa,[16],> 14
same,logP,[17],3.72
same,hepatocyte CLint at 1 µM,[18],12.8 µL/min/1e6 cells
OB1ON=C(c2ccccc2)c2cc(F)ccc21,MIC,Staphylococcus aureus [1],64 µM
same,MIC,Candida albicans [3],16 µM
N#Cc1ccc(Oc2ccc3c(c2)C=NOB3O)cc1,Activity,Candida albicans [11],inactive
same,inhibition,[4],23%
COC(=O)C1=C(C)NC(C)=C(C(=O)OCCN(C)Cc2ccccc2)C1c1cccc([N+](=O)[O-])c1 (stereo unspecified) [NICARDIPINE],solubility kinetic at 2 h,[15],4.7 µM
OB1NN=C(c2ccccc2)c2cc(F)ccc21,Activity,Staphylococcus aureus [2],inactive
same,MIC,Candida albicans [3],> 128 µM
O=C(Nc1ccc2c(c1)B(O)NN=C2)c1ccc(F)cc1C(F)(F)F,Activity,Staphylococcus aureus [2],inactive
COc1ccc(C2=NOB(O)c3ccccc32)cc1,MIC,Staphylococcus aureus [1],64 µM
same,MIC,Candida albicans [3],32 µM
OB1ON=Cc2cc(-c3ccc(F)cc3)ccc21,MIC,Candida albicans [3],4 µM
O=C(c1cc(CC2=NOB(O)c3ccccc32)ccc1F)N1CCN(C(=O)C2CC2)CC1,IC50,[19],> 1000 nM
same,inhibition,[20],inactive
same,IC50,[21],> 1000 nM
same,inhibition,[22],18%
OB1ON=C(c2ccccc2)c2ccccc21,"fraction unbound at 6 h, 1 µM",[5],0.102
same,percent of hepatic blood flow,[6],< 36.1%
same,"efflux ratio at 1.5 h, 10 µM",[7],0.12
same,pKa,[8],7
same,"Papp A→B at 1.5 h, 10 µM",[9],34.5 ×10⁻⁶ cm/s
same,remaining at 730 h,[10],> 99%
same,half-life at 1 µM,[12],> 6 h
same,"Papp B→A at 1.5 h, 10 µM",[13],4 ×10⁻⁶ cm/s
same,logD at 1 h,[14],0.71
same,solubility kinetic at 2 h,[15],≥ 403 µM
same,pKa,[16],~5.5
same,logP,[17],2.6
same,hepatocyte CLint at 1 µM,[18],< 3.9 µL/min/1e6 cells
same,MIC,Staphylococcus aureus [1],128 µM
same,MIC,Candida albicans [3],32 µM
OB1OCc2cc(F)ccc21 [TAVABOROLE],"fraction unbound at 6 h, 1 µM",[5],0.34
same,solubility kinetic at 2 h,[15],> 658 µM
same,pKa,[16],7.4
same,MIC,Staphylococcus aureus [1],128 µM
same,MIC,Candida albicans [3],1 µM
OB1ON=Cc2ccccc21,"fraction unbound at 6 h, 1 µM",[5],0.71
same,percent of hepatic blood flow,[6],81.2%
same,"efflux ratio at 1.5 h, 10 µM",[7],0.13
same,pKa,[8],7.1
same,"Papp A→B at 1.5 h, 10 µM",[9],33 ×10⁻⁶ cm/s
same,remaining at 730 h,[10],> 99%
same,half-life at 1 µM,[12],0.785 h
same,"Papp B→A at 1.5 h, 10 µM",[13],4.4 ×10⁻⁶ cm/s
same,logD at 1 h,[14],~0.65
same,solubility kinetic at 2 h,[15],≥ 386 µM
same,pKa,[16],5.5
same,logP,[17],1.23
same,hepatocyte CLint at 1 µM,[18],29.7 µL/min/1e6 cells
same,MIC,Candida albicans [3],16 µM
OB1OCc2ccccc21 [BENZOXABOROLE],pKa,[8],9.2
same,pKa,[16],7.4
C[C@H]1O[C@@H](O[C@H]2[C@@H](O)C[C@H](O[C@H]3[C@@H](O)C[C@H](O[C@H]4CC[C@@]5(C)[C@H](CC[C@@H]6[C@@H]5C[C@@H](O)[C@]5(C)[C@@H](C7=CC(=O)OC7)CC[C@]65O)C4)O[C@@H]3C)O[C@@H]2C)C[C@H](O)[C@@H]1O [DIGOXIN],"efflux ratio at 1.5 h, 10 µM",[7],13.4
same,"Papp A→B at 1.5 h, 10 µM",[9],1 ×10⁻⁶ cm/s
same,"Papp B→A at 1.5 h, 10 µM",[13],13.1 ×10⁻⁶ cm/s
C[C@]12CC[C@H]3[C@@H](CCC4=CC(=O)CC[C@@]43C)[C@@H]1CC[C@@H]2O [TESTOSTERONE],percent of hepatic blood flow,[6],89.1%
same,half-life at 1 µM,[12],0.417 h
same,hepatocyte CLint at 1 µM,[18],60.2 µL/min/1e6 cells
O=C(c1cc(CC2=NNB(O)c3ccccc32)ccc1F)N1CCN(C(=O)C2CC2)CC1,IC50,[19],120 nM
same,IC50,[21],~540 nM
OB1NN=Cc2cc(F)ccc21,MIC,Candida albicans [3],> 128 µM
CN(C)CCCN1c2ccccc2CCc2ccccc21 [IMIPRAMINE],solubility kinetic at 2 h,[15],457 µM
CC(C)NCC(O)COc1cccc2ccccc12 (stereo unspecified) [PROPRANOLOL],"Papp A→B at 1.5 h, 10 µM",[9],3.4 ×10⁻⁶ cm/s
CN[C@H](CC(C)C)C(=O)N[C@H]1C(=O)N[C@@H](CC(N)=O)C(=O)N[C@H]2C(=O)N[C@H]3C(=O)N[C@H](C(=O)N[C@H](C(=O)O)c4cc(O)cc(O)c4-c4cc3ccc4O)[C@H](O)c3ccc(c(Cl)c3)Oc3cc2cc(c3O[C@@H]2O[C@H](CO)[C@@H](O)[C@H](O)[C@H]2O[C@H]2C[C@](C)(N)[C@H](O)[C@H](C)O2)Oc2ccc(cc2Cl)[C@H]1O [VANCOMYCIN],MIC,Staphylococcus aureus [1],4 µM
OB1ON=Cc2cc(-c3ccccc3)ccc21,MIC,Candida albicans [3],8 µM
CCCSc1ccc2nc(NC(=O)OC)[nH]c2c1 [ALBENDAZOLE],logD at 1 h,[14],3.57
O=C(Nc1ccc2c(c1)B(O)NN=C2c1ccccc1)c1ccc(F)cc1C(F)(F)F,MIC,Staphylococcus aureus [1],64 µM
N#Cc1ccc(Oc2ccc3c(c2)COB3O)cc1,inhibition,[23],11%
